Measured values: patent publication US9156881B2, “Tripeptide KDPT for antiapoptotic treatment” (WESTFAELISCHE WILHELMS-UNIVERSITAET MUENSTER, priority 2011, dated 2015)

Experiments:
melanogenesis = conditions: in vitro; cited from earlier work
colonic epithelial cells = conditions: cited from earlier work
[1] = system: human dermal microvascular endothelial cells (HMEC); test: M30-ApoptosisSense ELISA (cytokeratin 18) apoptosis rate in HMEC; assay type: cell-based
Experimental: To further elucidate the impact of KdPT administration on apoptosis in a different human cell line, additional experiments were performed in human dermal microvascular endothelial cells (HMEC) which are endothelial cells. The apoptosis rate in epithelial cells was measured by the M30-ApoptosisSense ELISA (PEVIVA, Bromma, Sweden), detecting cytokeratin 18 with a specific monoclonal M30 antibody, whereas before cytokeratin 18 was cleaved by the enzyme caspase. The HMEC cells grew semiconfluent in cell culture flasks, before plating them on a 6 well plate. One plate was stimulated with 10-5 and 10-6 M KdPT solved in routine medium (SFM, white column), the control plate was stimulated with the routine-medium alone.

[2] = system: caco-2 cells (human intestinal epithelial cells); test: M30-ApoptosisSense ELISA (cytokeratin 18) apoptosis rate in intestinal epithelial cells; assay type: cell-based; conditions: p<0.05, FIG. 1
Experimental: The apoptosis rate in epithelial cells was measured by the M30-ApoptosisSense ELISA
(PEVIVA, Bromma, Sweden), detecting cytokeratin 18 with a specific monoclonal M30 antibody, whereas before cytokeratin 18 was cleaved by the enzyme caspase. The caco-2 cells (human intestinal epithelial cells) grew semiconfluent in cell culture flasks, before plating them on a 6 well plate. One plate was stimulated with 10^−5 and 10^−6 M KdPT solved in routine medium (SFM, white column), the control plate was stimulated with the routine-medium alone.

experimental colitis = conditions: both colitis models (DSS, IL-10 gene-deficient mice); cited from earlier work
murine DSS colitis = test: Epithelial apoptosis rate in murine DSS-colitis (anti-active Caspase 3 staining of colon sections); assay type: in vivo; conditions: DSS-treated WT mice, KdPT 10 μg/day/animal i.p. daily, vs PBS control, P<0.05
Experimental: To further evaluate the impact of KdPT on the epithelial apoptosis rate in vivo, the murine DSS colitis was performed. Dextran sodium sulfate (DSS)-induced colitis was accomplished as described in Bettenworth Am J Pathol 2011. WT mice were given 3% DSS (ICN Biomedicals Inc., Eschwege, Germany) in drinking water for 5 days, and disease activity was monitored daily by body weight measurement. Afterwards, the mice received regular drinking water again to monitor the improvement in inflammation. PBS-diluted KdPT (10 μg/day/animal; Bachem Americas Inc., Torrance, Calif.) was given daily by intraperitoneal (i.p.). injection until the end of the experiment. Control mice received PBS only.
At the end of the experiment, the mice were sacrificed and the colons removed. The colons were opened, embedded in Tissue-Tek O.C.T. (Sukura Finetek Europe, Zoeterwoude, The Netherlands), and kept frozen at −80° C. until further use. […] Immunhistological stainings were analyzed by two blinded investigators.
To assess apoptosis rate, the number of anti-active Caspase 3 positive cells per total crypt epithelial cells was counted. The number of anti-active Caspase 3 positive cells in colonic tissue was assessed as a […], determined after KdPT administration in DSS-treated mice.

human sebocytes = conditions: cited from earlier work

(I)Lys-(d)Pro-(I)Thr [KdPT]
melanogenesis (melanogenesis): did not affect melanogenesis | transepithelial electrical resistance (colonic epithelial cells; after stimulation with interferon-γ/tumor necrosis factor-α): improved transepithelial electrical resistance | closure of wounds (colonic epithelial cells; colonic epithelial cells): accelerated closure of wounds | proliferation (colonic epithelial cells; colonic epithelial cells): increased proliferation | apoptosis rate (M30 ELISA, cytokeratin 18) ([1]; HMEC costimulated with KdPT, 24 h incubation, control 1150.5 U/I): 965.9 U/I | reduction of apoptosis rate ([1]; HMEC, 10-5 and 10-6 M KdPT, 24 h incubation, vs control plate, p=0.002): 19.2% | apoptosis rate on costimulation with KdPT (in words) ([1]; HMEC, FIG. 2): significant reduction of the apoptosis rate | apoptosis rate on costimulation with KdPT (in words) [2]: significant reduction of the apoptosis rate | severity of inflammation (experimental colitis): markedly reduced severity of inflammation | number of anti-active Caspase 3 positive cells per total crypt epithelial cells (murine DSS colitis): dramatically decreased | IL-1(beta)-mediated cytokine expression and signaling (human sebocytes): suppresses
